What all share (type): in vivo
The subject of one data set is Blattella germanica. Put plainly: Contact test on non-porous tile, Blattella germanica. The conditions noted are these: 24 h; for Mortality %/time (h) (application): Table 37, Blattella germanica, concentrations in mg/ml in label. The method, then:
1 ml of Composition 36 was distributed on the tile. […] 1 ml of Composition 37 was distributed on a tile.

A further data set has as its system Musca domestica L. Description: Contact test on non-porous tile, Musca domestica. The method, then:
1 ml of Composition 1 was applied to the tile. […] 1 ml of Composition 8a was distributed on the tile. […] 1 ml of Composition 8a was distributed on a tile. […] At the end of the 30 minutes, the flies were transferred to an untreated area.
1 ml of Composition 3 was applied to the tile. […] 1 ml of Composition 8c was distributed on the tile. […] 1 ml of Composition 8c was distributed on a tile. […] At the end of the 30 minutes, the flies were transferred to an untreated area.
1 ml of Composition 9a was distributed on the tile. […] 1 ml of Composition 9a was distributed on a tile. […] At the end of the 30 minutes, the flies were transferred to an untreated area. […] 1 ml of Composition 10a was distributed on the tile. […] 1 ml of Composition 10a was distributed on a tile. […] At the end of the 30 minutes, the flies were transferred to an untreated area. […] 1 ml of Composition 8c was distributed on the tile. […] 1 ml of Composition 8c was distributed on a tile. […] At the end of the 30 minutes, the flies were transferred to an untreated area.
1 ml of Composition 5a, was distributed on the tile. […] 1 ml of Composition 6a was distributed on the tile. […] 1 ml of Composition 7a was distributed on the tile.
1 ml of Composition 3 was distributed on the tile. […] 1 ml of Composition 9a was distributed on the tile. […] 1 ml of Composition 11a was distributed on a tile. […] 1 ml of Composition 12a was distributed on a tile.
1 ml of Composition 3 was distributed on the tile. […] 1 ml of Composition 17a was distributed on a tile. […] 1 ml of Composition 18a was distributed on a tile. […] Each experiment (A-C) was conducted in duplicate.
1 ml of Composition 23a was distributed on the tile. […] 1 ml of Composition 20a was distributed on a tile. […] Each experiment (A-B) was conducted in duplicate.
1 ml of Composition 3 was distributed on the tile. […] 1 ml of Composition 25a was distributed on a tile. […] Each experiment (A-B) was conducted in duplicate.
1 ml of Composition 23a was distributed on the tile. […] 1 ml of Composition 27a was distributed on a tile. […] Each experiment (A-B) was conducted in duplicate.
1 ml of Composition 26a was distributed on a tile. […] 1 ml of Composition 26b was distributed on a tile. […] 1 ml of Composition 26c was distributed on a tile.
1 ml of Composition 22a was distributed on a tile. […] 1 ml of Composition 22b was distributed on a tile. […] 1 ml of Composition 22c was distributed on a tile.
1 ml of Composition 23a was distributed on the tile. […] 1 ml of Composition 44a was distributed on a tile.
1 ml of Composition 33 was distributed on a tile. […] 1 ml of Composition 33 was distributed on a tile. […] At the end of the 30 minutes, the flies were transferred to an untreated area.
1 ml of Composition 1 was distributed on the tile. […] 1 ml of Composition 34 was distributed on a tile. […] 1 ml of Composition 34 was distributed on a tile. […] At the end of the 30 minutes, the flies were transferred to an untreated area.
1 ml of Composition 3 was distributed on the tile. […] 1 ml of Composition 31a was distributed on a tile. […] 1 ml of Composition 31b was distributed on a tile. […] 1 ml of Composition 31b was distributed on a tile. […] At the end of the 30 minutes, the flies were transferred to an untreated area. […] 1 ml of Composition 38a was distributed on a tile. […] 1 ml of Composition 38a was distributed on a tile. […] At the end of the 30 minutes, the flies were transferred to an untreated area.
G) According to the invention. 1 ml of Composition 40a was distributed on a tile. […] Subsequently, after waiting for the solvent to evaporate, 10 flies were placed on top of the treated til

Another data set relates to Blatta lateralis. Description: Contact test on non-porous tile, Blatta lateralis. Also noted: Mortality %: concentration or dose not given beside the values. The note with it: for Mortality %: 25° C, insects on treated tile. As to the method:
1 ml of Composition 24 was distributed on the tile. […] 1 ml of Composition 20c was distributed on a tile. […] 1 ml of Composition 20d was distributed on a tile.
1 ml of Composition 24 was distributed on the tile. […] 1 ml of Composition 28 was distributed on a tile. […] Each experiment (A-B) was conducted in duplicate.
1 ml of Composition 24 was distributed on the tile. […] 1 ml of Composition 21 was distributed on a tile.
1 ml of Composition 4b was distributed on the tile. […] 1 ml of Composition 31c was distributed on a tile. […] 1 ml of Composition 31d was distributed on a tile. […] 1 ml of Composition 31d was distributed on a tile.
1 ml of Composition 24 was distributed on the tile. […] 1 ml of Composition 35 was distributed on a tile. […] 1 ml of Composition 40b was distributed on a tile. […] 1 ml of Composition 42 was distributed on a tile.

These results are taken from US20260215418A1, “HYDROCARBON ALCOHOLS AND THEIR DERIVATIVES AS SYNERGISTS IN PESTICIDE ACTIVITY” (priority 2022, published 2026).

For the compound Oleic alcohol [Composition 37], in the data set with Blattella germanica, the “Mortality %/time (h) (application)” value is 7/24 ^ %.

Regarding `O=[N+]([O-])NC1=NCCN1Cc1ccc(Cl)nc1` [Composition 36, Imidacloprid, reference compound], in the data set on Blattella germanica (Example 34, 25° C, insects on treated tile), the Mortality % amounted to 27%. The “Mortality %/time (h) (application)” value in the data set on Blattella germanica is recorded as 27/24 ^ %.

Consider `CCCCC(O)CO` (stereo not drawn) [1,2-hexandiol], for which the “synergizing effect on Azamethiphos” value in the data set on Musca domestica L. (Musca domestica L., synergist applied with Azamethiphos) is “excellent synergizing effect”. Besides, the “synergizing effect on Cypermethrin” value in the data set with Musca domestica L. (Musca domestica L., synergist applied with Cypermethrin) is listed as “excellent synergizing effect”; in the data set on Blatta lateralis (Blatta lateralis, synergist applied with Cypermethrin) it was “good synergizing effect”. In addition, the “synergizing effect on Pyrethrins” value in the data set on Musca domestica L. (Musca domestica L., synergist applied with Pyrethrins) is “good synergizing effect”. In the data set with Musca domestica L. (Musca domestica L., synergist applied with Spinosad), the “synergizing effect on Spinosad” value is on record as “good synergizing effect”. In the data set on Musca domestica L. (Musca domestica, single substance alone, 0.39 mg/ml, 48 h, read-out: Mortality %/time (h)), the mortality at 390 µg/mL is 4%. The mortality at 680 µg/mL in the data set with Musca domestica L. (Musca domestica, single substance alone, 0.68 mg/ml, 48 h, read-out: Mortality %/time (h)) was found to be 7%. In addition, the mortality at 1050 µg/mL with Musca domestica L. (Musca domestica, single substance alone, 1.05 mg/ml, 48 h, read-out: Mortality %/time (h)) turned out to be 10%. In the data set with Musca domestica L. (Musca domestica, single substance alone, 2.34 mg/ml, 48 h, read-out: Mortality %/time (h)), the mortality at 2340 µg/mL came to 23%. The “synergizing effect on Imidacloprid” value in the data set with Blatta lateralis (Blatta lateralis, synergist applied with Imidacloprid) is “excellent synergizing effect”.

For `O=[N+]([O-])NC1=NCCN1Cc1ccc(Cl)nc1` [Composition 24, Imidacloprid], the Mortality % is recorded as 20% in the data set with Blatta lateralis (Example 16, 48 h); 20% in the data set on Blatta lateralis (Example 22, 48 h); 20% in the data set on Blatta lateralis (Example 26, 48 h); 20% in the data set on Blatta lateralis (Example 33, 48 h). In addition, the “Mortality %/time (h) (application)” value in the data set on Blatta lateralis (Table 37, Blatta lateralis, 48 h, application ^, concentrations in mg/ml in label) was 20/48 ^ %.
